Laboratory results: ChEMBL document CHEMBL1649134, “Occurrence of efflux mechanism and cephalosporinase variant in a population of Enterobacter aerogenes and Klebsiella pneumoniae isolates producing extended-spectrum beta-lactamases” (2009)
≈ marks a conversion by molar mass, not a printed value.

What was measured:
Assay type in all cases: functional
[1] = system: Klebsiella aerogenes; assay: Antimicrobial activity against multidrug resistant Enterobacter aerogenes isolate 13 by broth dilution method in presence of 26.3 mg/L efflux pump inhibitor phenylalanine-arginine-beta-naphthylamide
[2] = system: Klebsiella aerogenes; assay: Antimicrobial activity against multidrug resistant Enterobacter aerogenes isolate 24 by broth dilution method in presence of 26.3 mg/L efflux pump inhibitor phenylalanine-arginine-beta-naphthylamide
[3] = system: Klebsiella aerogenes; assay: Antimicrobial activity against multidrug resistant Enterobacter aerogenes isolate 26 by broth dilution method in presence of 26.3 mg/L efflux pump inhibitor phenylalanine-arginine-beta-naphthylamide
[4] = system: Klebsiella aerogenes; assay: Antimicrobial activity against multidrug resistant Enterobacter aerogenes isolate 16 by broth dilution method in presence of 26.3 mg/L efflux pump inhibitor phenylalanine-arginine-beta-naphthylamide
[5] = system: Klebsiella aerogenes; assay: Antimicrobial activity against multidrug resistant Enterobacter aerogenes isolate 23 by broth dilution method
[6] = system: Klebsiella pneumoniae; assay: Antimicrobial activity against multidrug resistant Klebsiella pneumoniae isolate 10 by broth dilution method in presence of 26.3 mg/L efflux pump inhibitor phenylalanine-arginine-beta-naphthylamide
[7] = system: Klebsiella aerogenes; assay: Antimicrobial activity against multidrug resistant Enterobacter aerogenes isolate 7 by broth dilution method in presence of 26.3 mg/L efflux pump inhibitor phenylalanine-arginine-beta-naphthylamide
[8] = system: Klebsiella pneumoniae; assay: Antimicrobial activity against multidrug resistant Klebsiella pneumoniae isolate 6 by broth dilution method in presence of 26.3 mg/L efflux pump inhibitor phenylalanine-arginine-beta-naphthylamide
[9] = system: Klebsiella pneumoniae; assay: Antimicrobial activity against multidrug resistant Klebsiella pneumoniae isolate 9 by broth dilution method
[10] = system: Klebsiella pneumoniae; assay: Antimicrobial activity against multidrug resistant Klebsiella pneumoniae isolate 12 by broth dilution method
[11] = system: Klebsiella aerogenes; assay: Antimicrobial activity against multidrug resistant Enterobacter aerogenes isolate 27 by broth dilution method
[12] = system: Klebsiella aerogenes; assay: Antimicrobial activity against multidrug resistant Enterobacter aerogenes isolate 21 by broth dilution method
[13] = system: Klebsiella aerogenes; assay: Antimicrobial activity against multidrug resistant Enterobacter aerogenes isolate 22 by broth dilution method
[14] = system: Klebsiella aerogenes; assay: Antimicrobial activity against multidrug resistant Enterobacter aerogenes isolate 6 by broth dilution method in presence of 26.3 mg/L efflux pump inhibitor phenylalanine-arginine-beta-naphthylamide
[15] = system: Klebsiella aerogenes; assay: Antimicrobial activity against multidrug resistant Enterobacter aerogenes isolate 4 by broth dilution method
[16] = system: Klebsiella pneumoniae; assay: Antimicrobial activity against multidrug resistant Klebsiella pneumoniae isolate 7 by broth dilution method
[17] = system: Klebsiella aerogenes; assay: Antimicrobial activity against multidrug resistant Enterobacter aerogenes isolate 9 by broth dilution method
[18] = system: Klebsiella aerogenes; assay: Antimicrobial activity against multidrug resistant Enterobacter aerogenes isolate 10 by broth dilution method
[19] = system: Klebsiella aerogenes; assay: Antimicrobial activity against multidrug resistant Enterobacter aerogenes isolate 5 by broth dilution method
[20] = system: Klebsiella aerogenes; assay: Antimicrobial activity against multidrug resistant Enterobacter aerogenes isolate 5 by broth dilution method in presence of 26.3 mg/L efflux pump inhibitor phenylalanine-arginine-beta-naphthylamide
[21] = system: Klebsiella pneumoniae; assay: Antimicrobial activity against multidrug resistant Klebsiella pneumoniae ATCC 11296 by broth dilution method
[22] = system: Klebsiella pneumoniae; assay: Antimicrobial activity against multidrug resistant Klebsiella pneumoniae isolate 6 by broth dilution method
[23] = system: Klebsiella pneumoniae; assay: Antimicrobial activity against multidrug resistant Klebsiella pneumoniae isolate 16 by broth dilution method
[24] = system: Klebsiella aerogenes; assay: Antimicrobial activity against multidrug resistant Enterobacter aerogenes isolate 6 by broth dilution method
[25] = system: Klebsiella aerogenes; assay: Antimicrobial activity against multidrug resistant Enterobacter aerogenes isolate 27 by broth dilution method in presence of 26.3 mg/L efflux pump inhibitor phenylalanine-arginine-beta-naphthylamide
[26] = system: Klebsiella pneumoniae; assay: Antimicrobial activity against multidrug resistant Klebsiella pneumoniae isolate 15 by broth dilution method in presence of 26.3 mg/L efflux pump inhibitor phenylalanine-arginine-beta-naphthylamide
[27] = system: Klebsiella aerogenes; assay: Antimicrobial activity against multidrug resistant Enterobacter aerogenes isolate 20 by broth dilution method in presence of 26.3 mg/L efflux pump inhibitor phenylalanine-arginine-beta-naphthylamide
[28] = system: Klebsiella pneumoniae; assay: Antimicrobial activity against multidrug resistant Klebsiella pneumoniae isolate 13 by broth dilution method in presence of 26.3 mg/L efflux pump inhibitor phenylalanine-arginine-beta-naphthylamide
[29] = system: Klebsiella pneumoniae; assay: Antimicrobial activity against multidrug resistant Klebsiella pneumoniae isolate 4 by broth dilution method in presence of 26.3 mg/L efflux pump inhibitor phenylalanine-arginine-beta-naphthylamide
[30] = system: Klebsiella aerogenes; assay: Antimicrobial activity against multidrug resistant Enterobacter aerogenes isolate 19 by broth dilution method
[31] = system: Klebsiella aerogenes; assay: Antimicrobial activity against multidrug resistant Enterobacter aerogenes isolate 12 by broth dilution method in presence of 26.3 mg/L efflux pump inhibitor phenylalanine-arginine-beta-naphthylamide
[32] = system: Klebsiella pneumoniae; assay: Antimicrobial activity against multidrug resistant Klebsiella pneumoniae isolate 9 by broth dilution method in presence of 26.3 mg/L efflux pump inhibitor phenylalanine-arginine-beta-naphthylamide
[33] = system: Klebsiella aerogenes; assay: Antimicrobial activity against multidrug resistant Enterobacter aerogenes isolate 11 by broth dilution method
[34] = system: Klebsiella pneumoniae; assay: Antimicrobial activity against multidrug resistant Klebsiella pneumoniae isolate 3 by broth dilution method
[35] = system: Klebsiella aerogenes; assay: Antimicrobial activity against multidrug resistant Enterobacter aerogenes isolate 26 by broth dilution method
[36] = system: Klebsiella pneumoniae; assay: Antimicrobial activity against multidrug resistant Klebsiella pneumoniae isolate 15 by broth dilution method
[37] = system: Klebsiella aerogenes; assay: Antimicrobial activity against multidrug resistant Enterobacter aerogenes isolate 8 by broth dilution method
[38] = system: Klebsiella pneumoniae; assay: Antimicrobial activity against multidrug resistant Klebsiella pneumoniae isolate 5 by broth dilution method in presence of 26.3 mg/L efflux pump inhibitor phenylalanine-arginine-beta-naphthylamide
[39] = system: Klebsiella aerogenes; assay: Antimicrobial activity against multidrug resistant Enterobacter aerogenes isolate 18 by broth dilution method
[40] = system: Klebsiella aerogenes; assay: Antimicrobial activity against multidrug resistant Enterobacter aerogenes isolate 19 by broth dilution method in presence of 26.3 mg/L efflux pump inhibitor phenylalanine-arginine-beta-naphthylamide
[41] = system: Klebsiella pneumoniae; assay: Antimicrobial activity against multidrug resistant Klebsiella pneumoniae isolate 16 by broth dilution method in presence of 26.3 mg/L efflux pump inhibitor phenylalanine-arginine-beta-naphthylamide

CCn1cc(C(=O)O)c(=O)c2cc(F)c(N3CCNCC3)cc21 [NORFLOXACIN]
MIC [1]: 512 µg/mL
MIC [2]: 128 µg/mL
MIC [3]: 128 µg/mL
MIC [4]: 128 µg/mL
MIC [5]: 512 µg/mL (≈ 1600 µM)
MIC [6]: 128 µg/mL
MIC [7]: 256 µg/mL
MIC [8]: 0.25 µg/mL
MIC [9]: 1 µg/mL (≈ 3.13 µM)
MIC [10]: 8 µg/mL (≈ 25.1 µM)
MIC [11]: 256 µg/mL (≈ 802 µM)
MIC [12]: 512 µg/mL (≈ 1600 µM)
MIC [13]: 256 µg/mL (≈ 802 µM)
MIC [14]: 2 µg/mL
MIC [15]: 512 µg/mL (≈ 1600 µM)
MIC [16]: 0.25 µg/mL (≈ 0.783 µM)
MIC [17]: 128 µg/mL (≈ 401 µM)
MIC [18]: 256 µg/mL (≈ 802 µM)
MIC [19]: 512 µg/mL (≈ 1600 µM)
MIC [20]: 512 µg/mL
MIC [21]: 0.5 µg/mL (≈ 1.57 µM)
MIC [22]: 1 µg/mL (≈ 3.13 µM)
MIC [23]: 1 µg/mL (≈ 3.13 µM)
MIC [24]: 64 µg/mL (≈ 200 µM)
MIC [25]: 128 µg/mL
MIC [26]: 256 µg/mL
MIC [27]: 128 µg/mL
MIC [28]: 32 µg/mL
MIC [29]: 128 µg/mL
MIC [30]: 128 µg/mL (≈ 401 µM)
MIC [31]: 512 µg/mL
MIC [32]: ≤ 0.06 µg/mL
MIC [33]: 512 µg/mL (≈ 1600 µM)
MIC [34]: 128 µg/mL (≈ 401 µM)
MIC [35]: 256 µg/mL (≈ 802 µM)
MIC [36]: 256 µg/mL (≈ 802 µM)
MIC [37]: 128 µg/mL (≈ 401 µM)
MIC [38]: 0.5 µg/mL
MIC [39]: 128 µg/mL (≈ 401 µM)
MIC [40]: 128 µg/mL
MIC [41]: 0.5 µg/mL

CN(C)[C@@H]1C(O)=C(C(N)=O)C(=O)[C@@]2(O)C(O)=C3C(=O)c4c(O)cccc4[C@@](C)(O)[C@H]3C[C@@H]12 [TETRACYCLINE]
MIC [1]: 8 µg/mL
MIC [2]: 8 µg/mL
MIC [3]: 2 µg/mL
MIC [4]: 2 µg/mL
MIC [5]: 64 µg/mL (≈ 144 µM)
MIC [6]: 256 µg/mL
MIC [7]: 16 µg/mL
MIC [8]: 256 µg/mL
MIC [9]: 8 µg/mL (≈ 18 µM)
MIC [10]: 2 µg/mL (≈ 4.5 µM)
MIC [11]: 128 µg/mL (≈ 288 µM)
MIC [12]: 128 µg/mL (≈ 288 µM)
MIC [13]: 128 µg/mL (≈ 288 µM)
MIC [14]: 8 µg/mL
MIC [15]: 128 µg/mL (≈ 288 µM)
MIC [16]: 2 µg/mL (≈ 4.5 µM)
MIC [17]: 64 µg/mL (≈ 144 µM)
MIC [18]: 128 µg/mL (≈ 288 µM)
MIC [19]: 128 µg/mL (≈ 288 µM)
MIC [20]: 32 µg/mL
MIC [21]: 2 µg/mL (≈ 4.5 µM)
MIC [22]: 2 µg/mL (≈ 4.5 µM)
MIC [23]: 4 µg/mL (≈ 9 µM)
MIC [24]: 4 µg/mL (≈ 9 µM)
MIC [25]: 8 µg/mL
MIC [26]: 128 µg/mL
MIC [27]: 4 µg/mL
MIC [28]: 128 µg/mL
MIC [29]: 256 µg/mL
MIC [30]: 64 µg/mL (≈ 144 µM)
MIC [31]: 16 µg/mL
MIC [32]: 128 µg/mL
MIC [33]: 64 µg/mL (≈ 144 µM)
MIC [34]: 4 µg/mL (≈ 9 µM)
MIC [35]: 32 µg/mL (≈ 72 µM)
MIC [36]: 2 µg/mL (≈ 4.5 µM)
MIC [37]: 64 µg/mL (≈ 144 µM)
MIC [38]: 128 µg/mL
MIC [39]: 4 µg/mL (≈ 9 µM)
MIC [40]: 8 µg/mL
MIC [41]: 128 µg/mL
